Measurements reported in ChEMBL document CHEMBL1201862, “PubChem BioAssay data set” (2004).
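In this assay, cells in 96-well plates receive the compound at five concentrations for 48 hours. Endpoints are linearly interpolated between the surrounding concentrations. Abbreviation: GI50, concentration required for 50% inhibition of growth.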 The source made the active and inactive calls. Cut-off read from the data, not from the text of the source: active = GI50 up to about 1.1 µM and inactive = higher.

Assays:
Experiment in all cases: growth of human tumour cells (NCI), 48 h
[1] = tested on: CCRF-CEM
[2] = tested on: TK-10
[3] = tested on: SNB-75
[4] = tested on: SF-539
[5] = tested on: SW-620
[6] = tested on: 786-0
[7] = tested on: HT-29
[8] = tested on: SK-MEL-2
[9] = tested on: RXF 393
[10] = tested on: A498
[11] = tested on: CAKI-1
[12] = tested on: SR
[13] = tested on: PC-3
[14] = tested on: T47D
[15] = tested on: DU-145
[16] = tested on: NCI/ADR-RES
[17] = tested on: MDA-MB-435
[18] = tested on: MDA-MB-231

Measured: GI50

CC(c1cccc2ccccc12)/[N+]([O-])=C/c1ccccc1 (centres undefined)
inactive: [1] > 100 µM | [2] > 100 µM | [3] 75 µM | [4] > 100 µM | [5] > 100 µM | [6] > 100 µM | [7] > 100 µM | [8] > 100 µM | [9] > 100 µM | [10] > 100 µM

CCOC(=O)/C(=C/c1ccc(C#N)cc1)N(CC)CC
inactive: [1] > 100 µM | [2] > 100 µM | [11] > 100 µM | [3] > 100 µM | [4] > 100 µM | [5] > 100 µM | [6] > 100 µM | [7] > 100 µM | [8] > 100 µM | [12] > 100 µM | [10] > 100 µM

CCCc1ccc(/N=C\c2cc(OC)c(OC)c(OC)c2)cc1
inactive: [1] 26.6 µM | [2] > 100 µM | [11] > 100 µM | [3] > 100 µM | [4] > 100 µM | [5] > 100 µM | [6] > 100 µM | [7] > 87.7 µM | [8] > 100 µM | [9] > 100 µM | [12] 55.5 µM | [10] > 100 µM

COc1ccc2nc(NC(=O)C(=O)C(C#N)c3ccc(Cl)c(Cl)c3)sc2c1 (centres undefined)
inactive: [1] > 100 µM | [2] > 100 µM | [11] > 100 µM | [3] 45.3 µM | [4] 63.4 µM | [5] > 100 µM | [6] > 100 µM | [7] > 100 µM | [8] > 100 µM | [9] 52.2 µM | [10] > 100 µM

Cc1cc(Cl)ccc1NC(=O)C(=O)C(C(=O)c1ccccc1)C1OC(=O)c2ccccc21 (centres undefined)
inactive: [1] > 100 µM | [2] > 100 µM | [11] > 100 µM | [3] > 100 µM | [4] > 100 µM | [5] > 100 µM | [6] > 100 µM | [7] > 100 µM | [8] > 100 µM | [9] > 100 µM | [12] > 100 µM | [10] > 100 µM

CC1=C(C(=O)Nc2ccccc2)C(c2ccc(Cl)c(Cl)c2)C(C(=O)Nc2ccccc2)=C(C)N1
inactive: [1] 5.06 µM | [2] 33.9 µM | [3] 14.2 µM | [4] 17.3 µM | [5] 17 µM | [6] 12.8 µM | [7] 12.2 µM | [9] 8.61 µM | [10] 16.7 µM

N#C/C(=C\c1ccc(O)cc1O)C(N)=O
inactive: [1] > 100 µM | [2] > 100 µM | [11] 58.1 µM | [3] 16.7 µM | [4] > 100 µM | [5] > 100 µM | [6] > 100 µM | [7] 29.8 µM | [8] 98.4 µM | [9] 20.5 µM | [10] 65 µM

CC(C)=CCC/C(C)=C/CC/C(C)=C/C1CCC(=O)C1(C)C (centres undefined)
inactive: [1] 17.1 µM | [2] 39.4 µM | [11] 20.7 µM | [3] 28.5 µM | [4] 19.5 µM | [6] 17.9 µM | [7] 17.5 µM | [8] 17.4 µM | [9] 22.1 µM | [12] 19.7 µM | [10] 18.5 µM

C=C1C(=O)OC2C1C(OC(=O)/C(C)=C\C)CC1(CO1)C1C(O)C=C(C)C21O (centres undefined)
inactive: [1] 2.65 µM | [2] 3.44 µM | [11] 2.04 µM | [3] 10.6 µM | [4] 2.61 µM | [5] 1.58 µM | [6] 2.96 µM | [7] 13 µM | [8] 3.72 µM | [9] 2.73 µM | [12] 4.83 µM | [10] 5.02 µM

CN1COc2c(n(C)c(=O)[nH]c2=O)C1
inactive: [1] > 61.7 µM | [2] > 100 µM | [11] > 47.8 µM | [3] > 100 µM | [4] > 100 µM | [5] 38.6 µM | [6] > 100 µM | [7] > 100 µM | [8] > 100 µM | [9] > 66.7 µM | [12] 27.2 µM | [10] > 100 µM

COC(=O)/C=C/C1C(C(=O)OC)C2(C(=O)OC)CCC1(C(=O)OC)N2 (centres undefined)
inactive: [1] > 100 µM | [2] > 100 µM | [11] > 100 µM | [3] > 100 µM | [4] > 100 µM | [5] > 100 µM | [6] > 100 µM | [7] > 100 µM | [8] > 100 µM | [9] > 100 µM | [12] > 100 µM | [10] > 100 µM

O=C(/N=N/C(=O)OCc1ccccc1)OCc1ccccc1
inactive: [1] 84.1 µM | [2] > 100 µM | [11] 49.8 µM | [3] 42.1 µM | [4] > 100 µM | [5] > 100 µM | [6] > 100 µM | [7] > 100 µM | [8] > 100 µM | [9] > 100 µM

CCCCCCCCNC(=O)SCCCC
inactive: [1] 23.4 µM | [2] 29 µM | [11] 21.3 µM | [3] 26.1 µM | [4] 38.6 µM | [5] 45.9 µM | [6] 30.6 µM | [7] 20.8 µM | [8] 20.9 µM | [9] 24.3 µM | [10] 45.5 µM

CSc1nnc(CCC(=O)Nc2c(C)cccc2C)o1
inactive: [1] > 100 µM | [2] > 100 µM | [11] > 100 µM | [3] 91.6 µM | [4] > 100 µM | [5] > 100 µM | [6] > 100 µM | [7] > 100 µM | [8] > 100 µM | [9] > 100 µM | [10] > 100 µM

Nc1c([N+](=O)[O-])nc(Cl)c2nncn12
inactive: [1] > 46 µM | [2] > 100 µM | [11] > 100 µM | [3] > 23.7 µM | [4] > 95.5 µM | [5] > 100 µM | [6] > 87.7 µM | [7] 96.8 µM | [8] > 100 µM | [9] > 100 µM | [12] 19.9 µM | [10] > 100 µM

CC1(C)CC(=O)C2=C(C1)N(c1ccccc1)C1(O)C=CC(O)=C3C(=O)c4ccccc4C(=O)C321 (centres undefined)
inactive: [1] 4.06 µM | [13] 26.2 µM | [14] 45.3 µM | [2] 24.4 µM | [11] 26.2 µM | [15] 74 µM | [16] 9.84 µM | [3] 22.5 µM | [4] 27.4 µM | [6] 33.1 µM | [17] 20.7 µM | [7] 21.2 µM | [8] 27 µM | [9] 19.8 µM | [12] 8.57 µM | [18] 34.4 µM

C[C@]12CCc3nn(-c4ccccc4)nc3C1CC[C@@H]1C2CC[C@]2(C)C(=O)CCC12 (some centres undefined)
inactive: [1] > 100 µM | [2] > 100 µM | [11] > 100 µM | [3] > 100 µM | [4] > 100 µM | [5] > 100 µM | [6] > 100 µM | [7] > 100 µM | [8] > 100 µM | [9] > 100 µM | [12] > 100 µM
